# Paper PMC13477270 (Nature structural & molecular biology, 2025)
# Key:
# [1] = tested on: iTRIM37 KO RPE1 cells (PLK4 inhibition); assay type: cell-based; details: centrinone 100 or 150 nM, before TRIM37 knockout with doxycycline
# iTRIM37 KO RPE1 cells = assay type: cell-based; details: centrinone pretreatment, then TRIM37 knockout with doxycycline
smiles,measurement,setting,value
COc1c(Nc2cc(C)[nH]n2)nc(Sc2ccc(S(=O)(=O)Cc3cccc([N+](=O)[O-])c3F)cc2F)nc1N1CCOCC1 [centrinone],centrosome depletion,[1],depleted centrosomes
same,frequency of centrobin condensate formation after centrosome loss,iTRIM37 KO RPE1 cells,at a frequency similar to that in constitutive TRIM37Δ cells with centrosomes
